The source of these data is US20260294845A1, “Uses of Adrenalone to Manage Cardiotoxicity or Cardiovascular Disorders” (Emory University, priority 2023, published 2026).

Entries after “also recorded” stand apart in the source; their conditions may differ.

The subject of one series is RPMI8226 cells. Description: Cell viability of RPMI8226 cells after carfilzomib with or without 4H10. The series is classed as cell-based. The following applies: 4H10 co-treatment with carfilzomib, 24 h. How it is done: (§1) (top) Proteasome activity of IMR-90 hiPSC-CMs was measured after the cells were treated with CFZ with or without 4H10 for 24 hours. (bottom, right, left) Proteasome activity and cell viability of RPMI8226 cells (cancer cells) were measured after the cells were treated with CFZ with or without 4H10 for 24 hours.
(§2) Experiments were designed to determine the effects of carfilzomib and 4H10 on proteasome activity and cell viability of RPMI8226 cell line, which has been investigated for the efficacy tests of carfilzomib in […].

In series [1] the test system is hiPSC-CMs. The series is described as follows: Intracellular oxidative stress (ROS) of carfilzomib-treated hiPSC-CMs, DCFDA/H2DCFDA assay. The series is classed as cell-based, human. To be noted: 24 h. How it is done: The quantification of oxidative stress was performed using DCFDA staining of SCVI hiPSC-CMs treated with Cfz with or without 4H10 for 24 hours.
The induction of oxidative stress is a crucial mechanism through which proteasome inhibitors induce apoptosis. To investigate if 4H10 could alleviate carfilzomib-induced increase of oxidative stress in cardiomyocytes, hiPSC-CMs were exposed to carfilzomib at 5 μM alone or together with 4H10 at various concentrations for 24 h. The production of cellular reactive oxygen species (ROS) was then measured using DCFDA/H2DCFDA assay kit.

The subject of series [2] is hiPSC-CMs. Description: Cardiac troponin T expression and mitochondrial content in EtOH-treated hiPSC-CMs. It is filed as cell-based, human. An excerpt: (§3) EtOH-induced cardiotoxicity shares common disease phenotypes and possibly similar underlying mechanisms with drug-induced cardiotoxicity.
Series [3] deals with hiPSC-CMs. The series is described as follows: Cell viability of hiPSC-CMs treated with carfilzomib with or without 4H10 (CellTiter-Blue). It is filed as cell-based, human. The following applies: for mitigation of carfilzomib-induced cytotoxicity: co-treatment of hiPSC-CMs with carfilzomib. How it is done:
Cell viability was analyzed after IMR-90 hiPSC-CMs were treated with carfilzomib (CFZ) with or without 4H10 for 24 hours. (n=5 cultures).
(§4) A human induced pluripotent cell line (hiPSC line IMR90™, WiCell Research Institute) was fed daily on Matrigel™-coated plates with a defined medium for hiPSC culture, mTeSR1 medium. For CM differentiation, hiPSCs were induced using a growth factor-driven differentiation protocol as reported in Jha et al. Efficient differentiation of cardiomyocytes from human pluripotent stem cells with growth factors. Methods Mol Biol, 2015, 1299, 115-131. On the day of induction (day 0), medium was replaced with RPMI 1640 medium supplemented with 2% B27 minus insulin (a cell culture supplement) containing 100 ng/ml activin A. After induction for 24 h, the medium was replaced with fresh RPMI supplemented with 2% B27 minus insulin containing 10 ng/ml BMP4. From day 4 of differentiation, the medium was replaced with RPMI supplemented with 2% B27. On day 5, the cells were dissociated and reseeded into AggreWell400™ plates to acquire cardiac spheres. After 24 h, the cardiac spheres formed were collected and transferred to low-adhesion dishes for suspension culture. The medium was changed every other day. Cardiac spheres typically started beating spontaneously by day 7 to 9.
(§5) Cardiomyocytes derived from human pluripotent stem cells (hiPSC-CMs) were provide a new platform for the studies of cancer drug-induced side effects and therapies. Using these cells, lead molecules were identified indicating protective properties on cardiomyocytes from the toxic effect of chemotherapy agents and ethanol (EtOH). […] Oxidative stress is a common molecular mechanism for cardiotoxicity induced by chemotherapy including proteosome inhibitors.
Consistently, treatment of hiPSC-CMs induced cell death and cytotoxicity. To examine if 4H10 could protect cardiomyocytes from carfilzomib-induced cytotoxicity, hiPSC-CMs were treated with carfilzomib at 5 μM alone or together with 4H10 at various concentrations for 24 h and then examined cell viability using the CellTiter-Blue Cell Viability Assay. Cells treated with DMSO (vehicle) were used as a control.
(The colour change of resazurin is a common sign of viable cells or microbes.)

Series [4] concerns hiPSC-CMs. The series is described as follows: Cell viability assay and cell counting (high-content imaging) of EtOH-challenged hiPSC-CMs. It is filed as cell-based, human.
Source text: as §3

The test system of series [5] is proteasome. The series is described as follows: Proteasome activity in hiPSC-CMs after carfilzomib with or without 4H10. It is filed as cell-based, human. The following applies: 4H10 co-treatment with carfilzomib, 24 h, IMR-90 hiPSC-CMs. How it is done: as §1
The proteasome, responsible for the regulated degradation of proteins, is a key cellular component targeted by carfilzomib as part of its mechanism of action in cancer therapy. Therefore, in addition to validation of cardioprotective effects of 4H10 on cell viability and mitochondrial function, it is crucial to examine if 4H10 compromises the proteasome inhibition efficacy of carfilzomib.

Series [6] has as its system proteasome. The series is described as follows: Proteasome activity in RPMI8226 cells after carfilzomib with or without 4H10. It is filed as cell-based. To be noted: 4H10 with carfilzomib, 24 h. How it is done: as §1, §2
For series [7], the system named is hiPSC-CMs. Description: MitoTracker Red staining (mitochondrial content and activity) of carfilzomib-treated hiPSC-CMs, high-content imaging. The series is classed as cell-based, human. The following applies: 24 h. How it is done:
MitoTracker™ Red staining was performed in IMR-90 hiPSC-CMs treated with CFZ with or without 4H10 for 24 hours.
as §4
Mitochondria play a crucial role in energy production, cellular metabolism, and the regulation of cell death. Experiments indicate carfilzomib induces mitochondrial dysfunction in hiPSC-CMs. To assess the potential mitigating effects of 4H10 on carfilzomib-induced mitochondrial dysfunction, hiPSC-CMs were treated with carfilzomib alone or co-treated with 4H10 at various concentrations. Mitochondria were then visualized using MitoTracker™ Red dyes, which can accumulate in active mitochondria and allow for the measurement of mitochondrial content and activity in live cells.

The test system of another series is SCVI-273 hiPSC-CMs. The series is described as follows: Cell viability of EtOH-treated hiPSC-CMs derived from SCVI-273 hiPSCs. To be noted: another cell line SCVI-273. The series is classed as cell-based, human.
Source text: as §3

The subject of series [8] is hiPSC-CMs. Description: Oxidative stress in EtOH-treated hiPSC-CMs. It is filed as cell-based, human.
Source text: as §3

The subject of series [9] is hiPSC-CMs. The series is described as follows: Cell viability of hiPSC-CMs treated with doxorubicin with or without 4H10 (CellTiter-Blue). The series is classed as cell-based, human. An excerpt:
Doxorubicin is a widely used chemotherapy drug for various cancers, including breast cancer, leukemia, and lymphoma. However, one significant side effect associated with doxorubicin use is cardiotoxicity. It is contemplated that 4H10 may target common mechanisms of cardiotoxicity and have a broad impact of cardioprotection since it protects hiPSC-CMs from toxicity induced by both ethanol and carfilzomib.

Series [10] deals with hiPSC-CMs. The series is described as follows: Mitochondrial oxidative stress caused by bortezomib (PS-341). The series is classed as cell-based, human. To be noted: with bortezomib.
Source text: as §5

Another series relates to patients. To be noted: cancer patients on therapy; cited from earlier work.
Series [11] relates to hiPSC-CMs. The following applies: Liu et al., 2021; cited from earlier work.
In series [12] the test system is hiPSC-CMs. The series is described as follows: Chronic ethanol exposure of hiPSC-CMs: cellular properties, functions and global proteomic profiling. The series is classed as cell-based, human. How it is done: Cardiomyocytes derived from human pluripotent stem cells (hiPSC-CMs) were treated with clinically relevant doses of ethanol for various durations up to 5 weeks. The treated cells were characterized for their cellular properties and functions, and global proteomic profiling was conducted.

For series [13], the system named is α1-AR. To be noted: literature knowledge; cited from earlier work.
Series [14] has as its system α1-AR. The series is described as follows: Staining of hiPSC-CMs with BODIPY-FL-prazosin for α1-AR expression. The series is classed as cell-based, human. To be noted: fluorescent staining, α1-AR expression and localization. From the text:
The expression of α1-AR was detected in hiPSC-CMs based on the BODIPY FL prazosin signals.

The subject of series [15] is hiPSC-CMs. Description: Effects of chemotherapeutic agents on function of hiPSC-CMs. The series is classed as cell-based, human. To be noted: melphalan treatment.
[16] abbreviates: clinically relevant doses of ethanol, up to 5 weeks.

For `CNCC(=O)c1ccc(O)c(O)c1` [4H10], the “change of carfilzomib-reduced RPMI8226 viability by 4H10 co-treatment” value in the series with RPMI8226 cells is “does not interfere with the proteasome inhibition activity of carfilzomib and the ability of carfilzomib to kill cancer cells; also recorded: not significantly changed”. Further, in the series with hiPSC-CMs [1] (4H10 at 5 μM or higher + carfilzomib 5 μM, dose-dependent), the “DCFDA fluorescence intensity on co-treatment” value is recorded as “reduction of DCFDA fluorescence intensity”. For the same molecule, the “mitigation of carfilzomib-induced oxidative stress” value with hiPSC-CMs [1] (co-treatment with carfilzomib, SCVI hiPSC-CMs) is on record as “mitigates carfilzomib-induced intracellular oxidative stress; also recorded: mitigated carfilzomib-induced oxidative stress in hiPSC-CMs in a dose-dependent manner”. In addition, in the series on hiPSC-CMs [2], the “defects in expression of cardiac troponin T” value is given as “reduced” and the “defects in mitochondrial content” value is “reduced”. In addition, the “maximal cytoprotective effect against carfilzomib” value in the series on hiPSC-CMs [3] (4H10 at 25 μM and 50 μM + carfilzomib 5 μM, 24 h) is “maximal cytoprotective effect for the cells to reach viability levels similar to those from DMSO-treated cells”. Moreover, the “cell viability after co-treatment with carfilzomib and 4H10” value with hiPSC-CMs [3] (carfilzomib 5 μM + 4H10 at 5 μM or higher, 24 h, compared (so in the source) with DMSO-treated cells) is “significantly increased cell viability”. Also, the “mitigation of carfilzomib-induced cytotoxicity” value in the series on hiPSC-CMs [3] was “protection of hiPSC-CMs from carfilzomib-induced cardiotoxicity; also recorded: reduced cytotoxicity was observed; also recorded: mitigated carfilzomib-induced cytotoxicity in a dose-dependent manner”. The “mitigation of carfilzomib-induced cytotoxicity” value in the series with hiPSC-CMs [3] (listed as adrenalone HCl) is recorded as “protected hiPSC-CMs from cardiotoxicity induced by carfilzomib”. In addition, the “protection from alcohol-induced cytotoxicity” value in the series on hiPSC-CMs [4] (hiPSC-CMs) is “can protect hiPSC-CMs from alcohol- and carfilzomib-induced cytotoxicity”. Further, the “cell survival following EtOH challenge” value in the series with hiPSC-CMs [4] (hiPSC-CMs challenged with EtOH, cell viability assay and cell counting) is “increased cell survival dose-dependently”. In the series on hiPSC-CMs [4] (high-content imaging), the “cell number after EtOH treatment” value is reported as “attenuated the reduced cell number induced by EtOH treatment”. Besides, the “effect on proteasome inhibition activity of carfilzomib” value in the series on proteasome [5] was “does not interfere with the proteasome inhibition activity of carfilzomib; also recorded: did not interfere with the proteasome inhibition activity of carfilzomib”. Moreover, the “change of proteasome activity in RPMI8226 cells by 4H10” value in the series with proteasome [6] is listed as “did not elicit any changes”. Further, in the series on hiPSC-CMs [7] (4H10 at 10 μM or higher + carfilzomib, dose-dependent), the “MitoTracker Red fluorescence intensity on co-treatment” value was “increase in fluorescence intensity”. In addition, the “mitigation of carfilzomib-induced mitochondrial defects” value with hiPSC-CMs [7] (co-treatment with carfilzomib) was “mitigates carfilzomib-induced mitochondrial defects; also recorded: mitigated carfilzomib-induced mitochondrial defects in hiPSC-CMs in a dose-dependent manner”. Further, the “cell viability, EtOH-treated SCVI-273 hiPSC-CMs” value with SCVI-273 hiPSC-CMs is recorded as “increased cell viability”. Further, the “oxidative stress in EtOH-treated hiPSC-CMs” value with hiPSC-CMs [8] is “reduced oxidative stress”. For the same molecule, the “cell viability after co-treatment with doxorubicin and 4H10” value in the series with hiPSC-CMs [9] (4H10 25 μM + doxorubicin 1, 2, 5 or 10 μM, 24 h, compared with doxorubicin) is on record as “increased cell viability”. The “mitigation of doxorubicin-induced cytotoxicity” value with hiPSC-CMs [9] (4H10 co-treatment with doxorubicin) was “protects hiPSC-CMs from doxorubicin-induced cytotoxicity; also recorded: mitigated doxorubicin-induced cytotoxicity”.

As for `CNCC(=O)c1ccc(O)c(O)c1` [Adrenalone, 1-(3,4-dihydroxyphenyl)-2-(methylamino) ethan-1-one], the “mitochondrial oxidative stress caused by bortezomib (PS-341)” value with hiPSC-CMs [10] was “reduced mitochondrial oxidative stress”.

`COc1cccc2c1C(=O)c1c(O)c3c(c(O)c1C2=O)C[C@@](O)(C(=O)CO)C[C@@H]3O[C@H]1C[C@H](N)[C@H](O)[C@H](C)O1` [doxorubicin]: in the series on patients, the “cardiac adverse events in patients” value was “cardiotoxicity”. In the series with hiPSC-CMs [9] (doxorubicin 1-10 μM alone, 24 h, compared with untreated cells), the “cell viability after doxorubicin” value is on record as “significant decrease in cell viability”.

For the molecule `CCO` [ethanol], the “changes in hiPSC-CMs on chronic ethanol exposure” value in the series with hiPSC-CMs [11] was “induces deleterious changes in cardiomyocytes”. Further, in the series on hiPSC-CMs [12] (setting [16]), the “Ca^2+ handling” value is “deranged Ca^2+ handling”, the action potential entry is “abnormal action potential”, the cell death entry was “Increased cell death” and the contractility result is given as “altered contractility”. Besides, in the series on hiPSC-CMs [12] (setting [16]), the oxidative stress result was “Increased cell death, oxidative stress” and the structure development entry was “suppressed structure development”. In the series on hiPSC-CMs [12] (ethanol, up to 5 weeks), the “global proteomic profiling: dysregulated proteins” value is “Many dysregulated proteins identified by global proteomic profiling were involved in apoptosis, heart contraction, and extracellular collagen matrix”. Further, the signaling pathways affected result in the series on hiPSC-CMs [12] (long-term ethanol exposure) was “several signaling pathways including the Wnt and TGFβ signaling pathways were affected”.

In the case of BODIPY-FL-prazosin, the “α1-AR affinity / antagonism” value with α1-AR [13] is reported as “high-affinity antagonist”. Besides, the “BODIPY FL prazosin signals in hiPSC-CMs” value with α1-AR [14] is listed as “co-localized with nuclei”.

On to melphalan, for which, in the series on hiPSC-CMs [15], the “cardiotoxicity in hiPSC-CMs: cardiac function” value is on record as “abnormal cardiac function” and the “cardiotoxicity in hiPSC-CMs: oxidative stress” value is on record as “induces cardiotoxicity, including oxidative stress”. In the series with patients, the “cardiac adverse events in patients” value is reported as “clinically observed arrhythmias”.
